The values that follow are results of earlier work, collected in patent EP1385541B1, “IMMUNOSTIMULANT COMPOSITIONS COMPRISING AN AMINOALKYL GLUCOSAMINIDE PHOSPHATE AND QS-21” (priority 2000, dated 2001).

Where two headings read alike, the source gives them in different places.

One data set deals with sheep red blood cells. The conditions noted are these: substantially pure QS-21 saponin, as described in U.S. Patent No. 5,057,540.

For QS-21, in the data set on sheep red blood cells, the “hemolysis of sheep red blood cells at concentrations of” value was ≥ 25 µg/mL. For the same substance, the critical micellar concentration is listed as ~0.02 % (w/v) (in phosphate buffered saline) and “about 0.03 % (w/v)” (in water).
